Source: patent US9028870B2, “Hydrogel-driven drug dosage form” (Bend Research, Inc., priority 1999, dated 2015)
Values after ≈ are worked out from the molar mass of the structure shown. One block for each compound: values may come before it.

Assays:
[1] = aqueous solubility as stated for drugs and organic acids

solubility ([1]; pH 6, aqueous buffer): ~20 µg/mL (≈ 42.1 µM)
Compound: CCCc1nn(C)c2c(=O)[nH]c(-c3cc(S(=O)(=O)N4CCN(C)CC4)ccc3OCC)nc12 [Drug 1, 1-[4-ethoxy-3-(6,7-dihydro-1-methyl-7-oxo-3-propyl-1H-pyrazolo[4,3-d]pyrimidin-5-yl)phenylsulphony]-4-methylpiperazine]

water solubility ([1]; water): 80 µg/mL (≈ 175 µM)
Compound: O=C(N[C@@H](Cc1ccccc1)[C@@H](O)C(=O)N1C[C@@H](O)[C@@H](O)C1)c1cc2cc(Cl)ccc2[nH]1 [Drug 4, 5-chloro-1H-indole-2-carboxylic acid [(1S)-benzyl-3-((3R,4S)-dihydroxypyrrolidin-1-yl-)-(2R)-hydroxy-3-oxypropyl]amide]

More lines, now with the values behind:

Compound: 4-[3-[4-(2-methylimidazol-1-yl)phenylthio]phenyl]-3,4,5,6-tetrahydro-2H-pyran-4-carboxamide hemifumarate [Drug 3]
solubility ([1]; pH 4): 3.7 mgA/mL

Compound: O=C1Cc2cc(CCN3CCN(c4nsc5ccccc45)CC3)c(Cl)cc2N1 [Drug 5]
solubility ([1]; model fasted duodenal solution): 3 µg/mL (≈ 7.26 µM)

Compound: CC(C(=O)O)c1ccc2c(c1)[nH]c1ccc(Cl)cc12 (stereo not shown) [Drug 6, carprofen]
solubility ([1]; pH 5.9, aqueous buffer): ~15 µg/mL (≈ 54.8 µM)

Compound: NC(=O)N1C(=O)/C(=C(\O)c2cccs2)c2cc(Cl)ccc21 [Drug 7, Tenidap]
solubility (physchem; pH 3.7, aqueous buffer): 2 µg/mL (≈ 6.24 µM) | solubility (physchem; pH 7.4, aqueous buffer): 200 µg/mL (≈ 624 µM)
